Measurements taken from PMC6946680, “Modulation of brain cation-Cl^− cotransport via the SPAK kinase inhibitor ZT-1a” (Nature Communications, 2020).
“And” between values parts separate entries of the source, which are not always exact repeats. Equal values may be shown once. “Also recorded” adds a separate entry of the source. Read-outs that look alike come from different tables or passages of the source.

Columns and labels:
[1] = ZT-1a pharmacokinetic properties in naive mice; assay type: in vivo, ICR mice; details: mouse, plasma; for MRT inf: read-out: MRT(0-∞)
Procedure: 1 Supplemental Table 3. ZT-1a pharmacokinetic (PK) properties in naïve mice.
2 ZT-1a pharmacokinetics were determined following a single 5 mg/kg intravenous (IV) dose and a single 10 mg/kg oral (PO) dose in
3 ICR mice (N = 3 at each time point).
Samples were subjected to drug assay by LC-MS/MS, and data were analyzed by WinNonlin V6.3. Tmax =
5 time of maximum plasma concentration, Cmax = maximum plasma concentration, AUC = area under the curve (measure of exposure),
6 T1/2 = half life, CL = plasma clearance, Vz = volume of distribution, MRT, mean residence time; F = oral bioavailability.

[2] = system: KCC4 pThr926/pThr980; experiment: Choroid plexus KCC4 phospho-IP/immunoblot in rat IVH model; assay type: in vivo
[3] = system: KCC3 pThr991; experiment: Immunoblot of KCC site 1 phosphorylation (KCC3 Thr991) in HEK-293 cells transfected with FLAG-KCC3; assay type: cell-based, human; details: for KCC3 pThr991 / KCC3: Fig S4b
[4] = system: KCC3 pThr1048; experiment: Immunoblot of KCC site 2 phosphorylation (KCC3 Thr1048) in HEK-293 cells transfected with FLAG-KCC3; assay type: cell-based, human; details: Fig S4b
[5] = system: AMPK (hum); experiment: Kinase profiling panel; assay type: biochemical, human
Procedure: Supplementary Table 2. ZT-1a kinase profiling data6.
ZT-1a was tested at 10 and 1 µM against a panel of 140 recombinant kinases in an enzymatic
activity-based assay performed by the International Centre for Kinase Profiling in the MRC
Protein Phosphorylation and Ubiquitylation Unit. Values represent % residual kinase activity

[6] = set-up: method as in Reviewer #3; details: as stated by Reviewer #3 in the peer-review file; ref Reviewer #3; cited from earlier work
[7] = system: pGSK-3α/β; experiment: Immunoblot of phospho-GSK-3α/β in ischemic mouse brain; assay type: in vivo; details: for pGSK-3αβ/GAPDH (fold veh-CL): Cytosol; for pGSK-3αβ/GAPDH (fold veh-CL) / pGSK-3αβ/Na K pump (fold veh-CL): Fig S4d; for pGSK-3αβ/Na K pump (fold veh-CL): Membrane
Source text: Cytosol and crude membrane protein
Expressions of Na+-K+ ATPase
respectively. d Densitometric analyses of immunoblots.

[8] = system: mouse model of ischemic stroke (tMCAO); experiment: Adhesive-removal test after tMCAO; assay type: in vivo; details: for Adhesive removal time: Fig 7c, individual mice #1-#7
[9] = system: mouse primary cortical neurons; experiment: Cell volume measurement (calcein-AM) under hyperosmotic stress, primary cortical neurons; details: Fig 5b trace
[10] = rat CPe 48 h post IVH + 1a, replicates

Cc1cc(C(C#N)c2ccc(Cl)cc2)c(Cl)cc1NC(=O)c1cc(Cl)ccc1O (stereo not shown) [ZT-1a, 5-chloro-N-(5-chloro-4-((4-chlorophenyl)(cyano)methyl)-2-methylphenyl)-2-hydroxybenzamide]
AUC ([1]; ICR, intravenous, 5 mg/kg, naive mice): 2340 ng·h/mL
half-life ([1]; ICR, intravenous, 5 mg/kg, naive mice, read-out: T1/2 (plasma half-life) (converted)): 1.8 h
half-life ([1]; ICR, iv, 5 mg/kg, IV 5 mg/kg, ICR mice, read-out: t1/2 (converted)): 1.8 h
bioavailability ([1]; ICR, oral, 10 mg/kg, naive mice): 2.2%
half-life ([1]; ICR, po, 10 mg/kg, PO 10 mg/kg, ICR mice, read-out: t1/2 (converted)): 2.6 h
AUC(0-inf) ([1]; IV 5 mg/kg, ICR mice): 2350 ng·h/mL
AUC(0-t) ([1]; IV 5 mg/kg, ICR mice): 2340 ng·h/mL
C0 ([1]; IV 5 mg/kg, ICR mice): 14900 ng/mL
Cmax ([1]; IV 5 mg/kg, ICR mice): 6910 ng/mL
Tmax ([1]; IV 5 mg/kg, ICR mice): 0.08 h
clearance ([1]; IV 5 mg/kg, ICR mice): 35.5 mL/min/kg
MRT inf ([1]; IV 5 mg/kg, ICR mice): 0.45 h
Vd ([1]; IV 5 mg/kg, ICR mice, read-out: Vz): 0.948 L/kg
AUC(0-inf) ([1]; PO 10 mg/kg, ICR mice): 105 ng·h/mL
AUC(0-t) ([1]; PO 10 mg/kg, ICR mice): 97.3 ng·h/mL
Cmax ([1]; PO 10 mg/kg, ICR mice): 94 ng/mL
Tmax ([1]; PO 10 mg/kg, ICR mice): 0.25 h
bioavailability ([1]; PO 10 mg/kg, ICR mice): 2.2%
MRT inf ([1]; PO 10 mg/kg, ICR mice): 3.3 h
KCC4 / Actin [2, 10]: 2.09 and 2.11 and 2.1 and 2.05 and 2.15 and 2.12
KCC4 pThr926 / Actin [2, 10]: 0.241 and 0.354 and 0.43 and 0.261 and 0.376 and 0.487
KCC4 pThr980 / Actin [2, 10]: 0.279 and 0.426 and 0.524 and 0.299 and 0.447 and 0.541
reduction of post-IVH KCC4 phosphorylation at Thr926/Thr980 ([2]; rat CPe, ICV ZT-1a): ~ 2 fold
inhibition at 3 µM ([3]; Homo sapiens, HEK293, 3 µM, HEK-293 cells, n = 4, read-out: inhibition of phosphorylation of KCC sites 1/2): 65 to 77%
KCC3 pThr991 / KCC3 ([3]; ZT-1a 0.3 uM): 0.89 and 0.932 and 0.861 and 0.828
KCC3 pThr991 / KCC3 ([3]; ZT-1a 1 uM): 0.63 and 0.651 and 0.702 and 0.601
KCC3 pThr991 / KCC3 ([3]; ZT-1a 3 uM): 0.65 and 0.601 and 0.553 and 0.517
KCC3 pThr1048 / KCC3 ([4]; ZT-1a 0.3 uM): 0.52 and 0.601 and 0.501 and 0.473
KCC3 pThr1048 / KCC3 ([4]; ZT-1a 3 uM): 0.31 and 0.301 and 0.253 and 0.205
% residual kinase activity ([5]; 1 µM): 126±4%
% residual kinase activity ([5]; 10 µM): 108±4%
logP [6]: > 6
pGSK-3αβ/GAPDH (fold veh-CL) ([7]; CL): 1.03 fold veh-CL and 0.85 fold veh-CL and 1.10 fold veh-CL
pGSK-3αβ/GAPDH (fold veh-CL) ([7]; IL): 1.40 fold veh-CL and 1.29 fold veh-CL and 1.07 fold veh-CL
pGSK-3αβ/Na K pump (fold veh-CL) ([7]; CL): 1.04 fold veh-CL and 0.96 fold veh-CL and 1.12 fold veh-CL
pGSK-3αβ/Na K pump (fold veh-CL) ([7]; IL): 0.94 fold veh-CL and 0.88 fold veh-CL and 0.90 fold veh-CL
GSK-3β (p-GSK-3alpha/beta) phosphorylation in ischemic brain ([7]; ZT-1a-treated ischemic mouse brain, 5.0 mg/kg i.p., 24 h post reperfusion, 5 mg/kg): not inhibited; also recorded: no marked inhibition
Adhesive removal time ([8]; Day 1): 15 seconds and 27 seconds and 70 seconds and 120 seconds and 28 seconds (2×) and 85 seconds
Adhesive removal time ([8]; Day 3): 26 s and 16 s and 65 s and 29 s and 9 s and 41 s and 62 s
Adhesive removal time ([8]; Day 5): 36 s and 27 s and 56 s and 35 s and 15 s and 28 s and 24 s
Adhesive removal time ([8]; Day 7): 8 seconds (2×) and 14 seconds and 57 seconds and 19 seconds and 16 seconds and 28 seconds
Adhesive removal time ([8]; Day -1 (baseline)): 25 seconds and 8 seconds and 7 seconds (2×) and 11 seconds and 13 seconds and 22 seconds
adhesive contact and removal tests ([8]; ZT-1a 5.0 mg/kg, vs vehicle-control mice): significantly improved motor function
Cell water (relative change) ([9]; Time 1.00403): 1.0915 relative change
Cell water (relative change) ([9]; Time 2.00427): 1.001 relative change
Cell water (relative change) ([9]; Time 3.00425): 0.9646 relative change
Cell water (relative change) ([9]; Time 4.00423): 0.9689 relative change
Cell water (relative change) ([9]; Time 5.0042): 0.9837 relative change
Cell water (relative change) ([9]; Time 6.00445): 0.7025 relative change
Cell water (relative change) ([9]; Time 7.00442): 0.636 relative change
Cell water (relative change) ([9]; Time 8.00435): 0.6336 relative change
Cell water (relative change) ([9]; Time 9.00452): 0.5971 relative change
Cell water (relative change) ([9]; Time 10.0046): 0.5748 relative change
Cell water (relative change) ([9]; Time 11.0045): 0.5229 relative change
Cell water (relative change) ([9]; Time 12.0045): 0.4882 relative change
Cell water (relative change) ([9]; Time 13.0045): 0.4496 relative change
Cell water (relative change) ([9]; Time 14.0045): 0.4313 relative change
Cell water (relative change) ([9]; Time 15.0047): 0.4596 relative change
